# Results published in patent US20050020588A1, “Cysteine protease inhibitors” (priority 1999, published 2005).
# What was measured:
# Type in all cases: biochemical
# [1] = target: Mammalian Cathepsin S (Homo sapiens, UniProt P25774); assay: Ki competitive inhibition, mammalian cathepsin S; conditions: Table 1, first line of each CAP-P2 block; read-out: Ki competitive inhibition measurements vs Mammalian Cathepsin S
# Procedure: Cathepsin S (Mammalian, murine and rat)
# Assays were performed in 100 mM sodium phosphate, 100 mM NaCl, pH 6.5 (buffer) in white 384 well plates (Coming Costar). Eight inhibitors were assayed per plate.
# Inhibitor dilutions were performed on a 96 well V-bottomed polypropylene plate (Corning Costar). 100 μl of buffer was placed in wells 2-5 and 7-12 of rows A, B, C and D. Sufficient of each inhibitor at 10 mM in DMSO was placed into wells A1-D1 and A6-D6 to give the desired final concentration when the volume in the well was made up to 200 μl with buffer. Column 1 was made up to 200 μl with buffer, mixed by aspirating and dispensing 100 μl in the well, and 100 μl transferred to column 2. The pipette tips were changed and the mixing and transferral repeated to column 5. This process was repeated for columns 6-10.
# Substrate dilutions were performed on a 96 deep well polypropylene plate (Beckman Coulter). 280 μl of buffer was placed in wells B-H of columns 1 and 2.70 μl of 10 mM boc-Val-Leu-Lys-AMC was placed in A1 and A2. 2×250 μl of buffer was added to wells A1 and A2, mixed by aspirating and dispensing 280 μl in the well, and 280 μl transferred to row B. The pipette tips were changed and the process repeated down the plate to row H.
# Column 1 of the substrate dilution plate was distributed at 10 μl per well into alternate rows beginning at row A. Column 2 was distributed to alternate rows beginning at row B. Row A of the inhibitor dilution plate was distributed at 10 μl per well to alternate rows and columns starting at A1. Row B was distributed to alternate rows and columns starting at A2. Row C was distributed to alternate rows and columns starting at B1 and row D was distributed to alternate rows and columns starting at B2. The assay was started by the addition of 30 μl per well of 20 nM cathepsin S in buffer containing 10 mM 2-mercaptoethanol.
# (§1) Data were saved as text files and imported into Excel. The initial rates were determined by linear regression and then fitted to the competitive inhibition equation using SigmaPlot.
# [2] = target: Mammalian Cathepsin L (Homo sapiens, UniProt P07711); assay: Ki competitive inhibition, cathepsin L; conditions: Table 1, second line of each CAP-P2 block; read-out: Ki competitive inhibition measurements vs Mammalian Cathepsin L
# Sequence of Mammalian Cathepsin L (P07711 114-333): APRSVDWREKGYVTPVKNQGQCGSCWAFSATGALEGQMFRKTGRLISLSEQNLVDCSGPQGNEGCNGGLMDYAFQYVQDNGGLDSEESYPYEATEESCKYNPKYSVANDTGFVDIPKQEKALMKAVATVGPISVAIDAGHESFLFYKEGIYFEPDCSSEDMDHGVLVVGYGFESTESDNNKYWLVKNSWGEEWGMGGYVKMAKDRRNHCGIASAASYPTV
# Procedure: as §1
# (§2) Assays were performed essentially as above. For cathepsin L, the buffer used was 100 mM sodium acetate, 1 mM EDTA, pH 5.5 and the substrate was D-Val-Leu-Lys-AMC with a highest concentration of 100 μM. For cathepsin K, the buffer used was 100 mM MES/Tris, 1 mM EDTA, pH 7.0 and the substrate was D-Ala-Leu-Lys-AMC with a highest concentration of 250 μM.
# [3] = target: T1, Mammalian Cathepsin K (Homo sapiens, UniProt P43235); assay: Ki competitive inhibition, cathepsin K; conditions: Table 1, third line of each CAP-P2 block; read-out: Ki competitive inhibition measurements vs Mammalian Cathepsin K
# T1 sequence (P43235 115-329): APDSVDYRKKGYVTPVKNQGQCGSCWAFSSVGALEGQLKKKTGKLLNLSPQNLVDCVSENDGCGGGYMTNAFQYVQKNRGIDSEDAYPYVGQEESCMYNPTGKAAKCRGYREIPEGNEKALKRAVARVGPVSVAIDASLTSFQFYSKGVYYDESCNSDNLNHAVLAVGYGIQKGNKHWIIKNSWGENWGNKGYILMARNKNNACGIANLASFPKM
# Procedure: as §2
# Convenient assays for cathepsin K arere carried out using human recombinant enzyme. Standard assay conditions for the determination of kinetic constants used a fluorogenic peptide substrate, typically H-D-Ala-Leu-Lys-AMC, and were determined in either 100 mM Mes/Tris, pH 7.0 containing 1 mM EDTA and 10 mM 2-mercaptoethanol or 100 mM Na acetate, pH 5.5 containing 5 mM EDTA and 20 mM cysteine. The enzyme concentration used was 5 nM. The stock substrate solution was prepared at 10 mM in DMSO. Screens were carried out at a fixed substrate concentration of 60 μM and detailed kinetic studies with doubling dilutions of substrate from 250 μM. The total DMSO concentration in the assay was kept below 3%. All assays were conducted at ambient temperature. Product fluorescence (excitation at 390 nm, emission at 460 nm) was monitored with a Labsystems Fluoroskan Ascent fluorescent plate reader. Product progress curves were generated over 15 minutes following generation of AMC product.
# Potential inhibitors are screened using the above assay with variable concentrations of test compound. Reactions were initiated by addition of enzyme to buffered solutions of substrate and inhibitor. Ki values were calculated according to equation 1 [formula] where ν0 is the velocity of the reaction, V is the maximal velocity, S is the concentration of substrate with Michaelis constant of KM, and I is the concentration of inhibitor. Determination of Falcipain 2 Proteolytic Catalytic Activity
# Sequence of Mammalian Cathepsin S (P25774 115-331): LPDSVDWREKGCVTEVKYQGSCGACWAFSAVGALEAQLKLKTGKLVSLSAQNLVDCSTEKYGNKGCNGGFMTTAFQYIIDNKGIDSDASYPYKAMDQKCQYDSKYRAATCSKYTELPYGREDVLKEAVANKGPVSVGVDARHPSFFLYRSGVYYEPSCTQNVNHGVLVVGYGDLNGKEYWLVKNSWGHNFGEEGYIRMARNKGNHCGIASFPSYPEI
Ki [1],Ki [2],Ki [3],SMILES
1000 nM,1800 nM,> 100000 nM,C[C@@H]1OCC(=O)[C@@H]1NC(=O)[C@H](Cc1ccc(O)cc1)NC(=O)c1ccc(O)cc1 [CAP1-L-Tyr/drawing 70]
4200 nM,6800 nM,170 nM,CC(C)C[C@H](NC(=O)c1ccc(N(C)C)cc1)C(=O)N[C@H]1C(=O)CO[C@H]1C [CAP7-L-Leu/drawing 70]
170 nM,1400 nM,> 100000 nM,C[C@@H]1OCC(=O)[C@@H]1NC(=O)[C@H](Cc1ccc(O)cc1)NC(=O)c1ccccc1 [CAP3-L-Tyr/drawing 70]
700 nM,> 100000 nM,> 100000 nM,CC(C)CC[C@H](NC(=O)N1CCOCC1)C(=O)N[C@H]1C(=O)CO[C@H]1C [CAP9-L-hLeu/drawing 70]
860 nM,330 nM,27100 nM,O=C(NC(Cc1ccc(O)cc1)C(=O)NC1COCC1=O)c1ccc(O)cc1 [CAP1-L-Tyr/drawing 72]
2700 nM,13100 nM,40 nM,C[C@H]1OCC(=O)[C@H]1NC(=O)[C@H](CC(C)(C)C)NC(=O)c1ccc(N(C)C)cc1 [CAP7-L-tBu-Ala/drawing 69]
450 nM,> 100000 nM,> 100000 nM,CC(C)CC[C@H](NC(=O)c1ccoc1)C(=O)N[C@H]1C(=O)CO[C@H]1C [CAP8-L-hLeu/drawing 70]
1600 nM,250 nM,> 100000 nM,O=C(N[C@@H](Cc1ccc(O)cc1)C(=O)N[C@H]1COCC1=O)c1ccccc1 [CAP3-L-Tyr/drawing 72]
1300 nM,710 nM,3000 nM,CCn1nc(C)cc1C(=O)N[C@@H](CC(C)C)C(=O)N[C@@H]1C(=O)CO[C@@H]1C [CAP10-L-Leu/drawing 69]
250 nM,3900 nM,390 nM,C[C@H]1OCC(=O)[C@H]1NC(=O)[C@H](CC(C)(C)C)NC(=O)c1ccc(O)cc1 [CAP1-L-tBu-Ala/drawing 69]
200 nM,> 100000 nM,19900 nM,C[C@@H]1OCC(=O)[C@@H]1NC(=O)[C@H](CC(C)(C)C)NC(=O)c1ccoc1 [CAP8-L-tBu-Ala/drawing 70]
240 nM,670 nM,> 100000 nM,Cc1cc(C(=O)N[C@@H](Cc2ccc(O)cc2)C(=O)N[C@H]2C(=O)CO[C@H]2C)oc1C [CAP6-L-Tyr/drawing 70]
1100 nM,170 nM,> 100000 nM,C[C@H]1OCC(=O)[C@H]1NC(=O)[C@H](Cc1ccc(O)cc1)NC(=O)c1ccccc1 [CAP3-L-Tyr/drawing 69]
520 nM,> 100000 nM,> 100000 nM,CC(C)CC[C@H](NC(=O)N1CCOCC1)C(=O)N[C@@H]1C(=O)CO[C@H]1C [CAP9-L-hLeu/drawing 71]
210 nM,36400 nM,850 nM,CC(C)(C)CC(NC(=O)c1ccoc1)C(=O)NC1COCC1=O [CAP8-L-tBu-Ala/drawing 72]
340 nM,460 nM,> 100000 nM,CCn1nc(C)cc1C(=O)N[C@@H](Cc1ccc(O)cc1)C(=O)N[C@H]1C(=O)CO[C@H]1C [CAP10-L-Tyr/drawing 70]
270 nM,390 nM,70 nM,CC(C)C[C@H](NC(=O)c1ccc(O)cc1)C(=O)N[C@@H]1COCC1=O [CAP1-L-Leu/drawing 73]
300 nM,29800 nM,24100 nM,CC(C)CC[C@H](NC(=O)c1ccc(O)cc1)C(=O)N[C@H]1C(=O)CO[C@H]1C [CAP1-L-hLeu/drawing 70]

Ki [1],Ki [2],Ki [3],SMILES
800 nM,7900 nM,4800 nM,CC(C)C[C@H](NC(=O)N1CCOCC1)C(=O)N[C@H]1C(=O)CO[C@H]1C [CAP9-L-Leu/drawing 70]
400 nM,19300 nM,8900 nM,CCCC[C@H](NC(=O)c1ccc(O)cc1)C(=O)N[C@@H]1C(=O)CO[C@H]1C [CAP1-L-Nle/drawing 71]
230 nM,2700 nM,410 nM,CC(C)C[C@H](NC(=O)c1ccc(O)cc1)C(=O)N[C@H]1C(=O)CO[C@H]1C [CAP1-L-Leu/drawing 70]
370 nM,> 100000 nM,> 100000 nM,CC(C)CC[C@H](NC(=O)c1ccoc1)C(=O)N[C@@H]1C(=O)CO[C@H]1C [CAP8-L-hLeu/drawing 71]
580 nM,30400 nM,4200 nM,C[C@H]1OCC(=O)[C@H]1NC(=O)[C@H](CC(C)(C)C)NC(=O)N1CCOCC1 [CAP9-L-tBu-Ala/drawing 69]
440 nM,61200 nM,8700 nM,CC(C)CC[C@H](NC(=O)c1ccoc1)C(=O)N[C@@H]1COCC1=O [CAP8-L-hLeu/drawing 73]
2300 nM,140 nM,> 100000 nM,Cc1cc(C(=O)N[C@@H](Cc2ccc(O)cc2)C(=O)N[C@@H]2COCC2=O)oc1C [CAP6-L-Tyr/drawing 73]
3900 nM,1100 nM,23 nM,CC(C)C[C@H](NC(=O)c1ccc(N(C)C)cc1)C(=O)N[C@@H]1COCC1=O [CAP7-L-Leu/drawing 73]
490 nM,4400 nM,1150 nM,CCCC[C@H](NC(=O)c1ccc(O)cc1)C(=O)N[C@@H]1COCC1=O [CAP1-L-Nle/drawing 73]
470 nM,24600 nM,650 nM,C[C@H]1OCC(=O)[C@H]1NC(=O)[C@H](CC(C)(C)C)NC(=O)c1cccs1 [CAP5-L-tBu-Ala/drawing 69]
2000 nM,55 nM,> 100000 nM,Cc1cc(C(=O)N[C@@H](Cc2ccc(O)cc2)C(=O)N[C@@H]2C(=O)CO[C@@H]2C)oc1C [CAP6-L-Tyr/drawing 69]
480 nM,190 nM,330 nM,Cc1cc(C(=O)N[C@@H](CC(C)C)C(=O)N[C@@H]2COCC2=O)oc1C [CAP6-L-Leu/drawing 73]
3100 nM,690 nM,18 nM,CC(C)C[C@H](NC(=O)c1ccc(N(C)C)cc1)C(=O)N[C@H]1COCC1=O [CAP7-L-Leu/drawing 72]
6800 nM,46700 nM,3100 nM,CCCCC(NC(=O)c1ccc(N(C)C)cc1)C(=O)NC1C(=O)COC1C [CAP7-L-Nle/drawing 70]
560 nM,3300 nM,1400 nM,CCCC[C@H](NC(=O)c1ccc(O)cc1)C(=O)N[C@H]1COCC1=O [CAP1-L-Nle/drawing 72]
480 nM,1480 nM,290 nM,CC(C)C[C@H](NC(=O)c1cccs1)C(=O)N[C@@H]1C(=O)CO[C@@H]1C [CAP5-L-Leu/drawing 69]
3700 nM,100 nM,> 100000 nM,CCn1nc(C)cc1C(=O)NC(Cc1ccc(O)cc1)C(=O)NC1COCC1=O [CAP10-L-Tyr/drawing 72]
1000 nM,> 100000 nM,> 100000 nM,CCCC[C@H](NC(=O)c1ccoc1)C(=O)N[C@H]1C(=O)CO[C@H]1C [CAP8-L-Nle/drawing 70]
